Reference: patent publication US8211912B2, “Compositions and methods for effecting NAD+ levels using a nicotinamide phosphoribosyl tranferase inhibitor” (Gemin X Pharmaceuticals Canada, priority 2007, dated 2012)
Values joined by “and” are separate entries in the source; they are usually repeats but may differ in a detail not shown here. Identical values can stand only once. Like-named read-outs stand apart in the source and are kept apart here.

Experiments:
[1] = test system: DMS-114 human small cell lung carcinoma cells; assay: Sensitization to DNA damaging chemotherapeutic agents, relative ATP viability, 3 days; type: cell-based; conditions: for Fold change (IC50 in DMS-114 cells): without vs with 0.75 nM Compound 1
Protocol: (§3) Cells were plated in logarithmic growth phase at 500-20,000 cells per well in 96-well clear bottom plates (Corning; Corning, N.Y.) and cultured for 14 to 16 hours prior to the start of drug treatment. Serial dilutions of Compound 2 and Compound 1 were made in DMSO, diluted 1:50 in RPMI-1640 (Hyclone; Logan, Utah) and then added to tissue culture media at a final concentration of 0.2% DMSO. […] Relative ATP levels were determined by the bioluminescent measuring of cellular ATP levels in each culture well with the ViaLight-HS High Sensitivity Cytotoxicity and Cell Proliferation BioAssay Kit (Cambrex Bioproducts, Cat. No. LT07-311; Charles City, Iowa) according to manufacturer's instructions. Briefly, a cell permeabilizing reagent was added to each culture well in media at the time of viability determination, allowing free ATP to be released from viable cells in the culture. Addition of luciferase to the mixture catalyzes the release of light proportional to the amount of free ATP present, which can then be quantified in a Centro LB 960 luminometer (EG&G Berthold; Oak Ridge, Tenn.); the level of ATP is generally directly proportional to the viability of the cells.
(§4) Sigmoidal dose response curves were then generated using non-linear regression analysis of variable slope by Prism Version 4.00 for Windows (GraphPad Software, Inc.; San Diego, Calif.) and IC50 values calculated.
(§5) The IC50 values for the treatment with the DNA damaging agent were calculated relative to control cells that were treated with DMSO only.

[2] = test system: Jurkat human T cell leukemia cells; assay: as above; conditions: for Fold change (IC50 in Jurkat cells): without vs with 0.5 nM Compound 1
Protocol: as §3, §4, §5

[3] = Additional combination experiments with Compound 1; type: cell-based
[4] = test system: human multiple myeloma IM-9 cancer cells; assay: Xenograft of a cancer not deficient in nicotinic acid pathway; type: in vivo, CB17 SCID mice
Protocol: (§1) Human multiple myeloma IM-9 cancer cells were maintained in RPMI (Hyclone, Utah, USA) supplemented with 10% inactivated fetal bovine serum (Bio-Whittaker; MD, USA) and 1% penicillin-streptomycin-L-Glutamine (Gibco; NY, USA), under 5% CO2 at 37° C. IM-9 cells were transplanted subcutaneously into the flank of female mice. Each mouse was inoculated with a suspension of 10×10^6 tumors cells per 100 μl in PBS on day zero.
Treatments started on day eight after IM-9 cells transplantation. […] The control group was treated with vehicle (0.9% NaCl) alone for 104 hours. […] Compound 2 was prepared fresh for dosing and formulated in a vehicle solution of 10 mM citrate buffer at pH 4.8.
Observation continued for 23 days after initial tumor implantation.

[5] = Nicotinic acid pre-treatment against lethal intramuscular Compound 2 in non-tumor-bearing mice
[6] = Nicotinic acid as antidote to a lethal 24 h infusion of Compound 2 in non-tumor-bearing mice; conditions: Compound 2 650 mg/kg 24 h infusion
Protocol: CB17 SCID female mice, 5 mice per group, who were not bearing tumors were administered a lethal dose of Compound 2 as a 24 h infusion of Compound 2 at 650 mg/kg. Thereafter, mice were infused with saline for 24 h (Group 1); a niacin solution (12 mg/mL) for 4 hours at a dose of 90 mg/m2/h (30 mg/kg/h) followed by saline for another 20 h at a flow rate of 50 μL/h (Group 2); or a niacin solution (12 mg/mL) for 24 hours at a dose of 90 mg/m^2/h (30 mg/kg/h) with a flow rate of 50 μL/h.

[7] = test system: Human Fibrosarcoma HT1080 cancer cells; assay: Xenograft of a cancer deficient in nicotinic acid pathway; type: in vivo, mice
Protocol: as §1, with “Fibrosarcoma HT1080” for “multiple myeloma IM-9”, “(Bio-Whittaker, Md.,” for “(Bio-Whittaker; MD,”, “HT1080” for “IM-9”, “1×10^6” for “10×10^6”
Treatments started on day fifteen after HT1080 cells transplantation. […] The control group was treated with vehicle (0.9% NaCl) alone for 104 hours. Treatments were conducted using Lomir External pump—Model 220 with a flow rate of 50 μL/hr (˜2.5 mL/kg/hr) and equipped with 1 cc syringes for treated groups or equipped with 10 cc syringes for the control group. Compound 2 was prepared fresh for dosing and formulated in a vehicle solution of 10 mM citrate buffer at pH 4.8.
Observation continued for 22 days after initial tumor implantation.

[8] = molecular target: human NMPRT (Homo sapiens, UniProt P43490); conditions: cited from earlier work
[9] = test system: HeLa cells; conditions: Compound 1 20 nM, NM contained 0.1% NA
Protocol: (§2) Viability was measured after 72 hours by ViaLight assay (assessing ATP levels). […] Each bar is the mean±SD of quadruplicate samples. Each figure is representative of two independent experiments.
Viability was measured after 72 hours by ViaLight assay. […] Each point represents the mean and error bars the SD of triplicate samples. […] The concentration of nicotinamide in RPMI 1640 media was […]. HeLa cells were transiently transfected with vector (pcDNA3) or a plasmid expressing a flag-tagged yeast PNC1 gene (pcFLAG-PNC1). […] Relative viability was assessed after 72 hours by ViaLight assay.

[10] = test system: GCT MFH histiocytoma; conditions: 0.01, 0.1 and 1 mM nicotinic acid
[11] = test system: NF-κB regulated gene expression in HeLa cells; conditions: Compound 1 100 nM, 10 mM nicotinic acid, 24 hrs then 4 hours TNFα
Protocol: as §2

[12] = test system: NAD^+ levels in HeLa cells; conditions: Compound 1 100 nM, 10 mM nicotinic acid
Protocol: as §2

[13] = test system: T98G (glioblastoma); conditions: 0.01, 0.1 and 1 mM nicotinic acid
[14] = test system: SW982 synovial sarcoma cell line; conditions: 0.01, 0.1 and 1 mM nicotinic acid
Text: In FIGS. 10 and 11, fraction of cell survived is indicated by the vertical axis (labeled as “% control”).

[15] = test system: MG-63 osteosarcoma; conditions: 0.01, 0.1 and 1 mM nicotinic acid
[16] = test system: IMR32 (neuroblastoma); conditions: 0.01, 0.1 and 1 mM nicotinic acid
[17] = test system: U-2OS osteosarcome; conditions: 0.01, 0.1 and 1 mM nicotinic acid
[18] = test system: Hs821.T giant cell sarcome; conditions: 0.01, 0.1 and 1 mM nicotinic acid
[19] = test system: A204 rhabdomyosarcoma; conditions: 0.01, 0.1 and 1 mM nicotinic acid
[20] = test system: SW1353 chondrosarcoma; conditions: 0.01, 0.1 and 1 mM nicotinic acid
[21] = test system: cancer cell lines
[22] = test system: HT1080 fibrosarcoma; conditions: 0.01, 0.1 and 1 mM nicotinic acid
[23] = test system: colon cancer cell line Colo320DM; conditions: the only one of fourteen other carcinomas
[24] = read-out: IC50 in DMS-114 cells (μM), DNA damaging chemotherapeutic agent + 0.75 nM Compound 1, with 0.75 nM Compound 1, 3 days, relative to Compound 1 only control
[25] = read-out: IC50 in Jurkat cells (μM), DNA damaging chemotherapeutic agent + 0.5 nM Compound 1, with 0.5 nM Compound 1, 3 days, relative to Compound 1 only control
[26] = Homo sapiens, DMS-114, 72 h, read-out: IC50 in DMS-114 cells (μM), DNA damaging chemotherapeutic agent + No Compound 1, agent alone, 3 days, relative to DMSO control
[27] = Homo sapiens, Jurkat, 72 h, read-out: IC50 in Jurkat cells (μM), DNA damaging chemotherapeutic agent + No Compound 1

human NMPRT, sequence (P43490 whole entry): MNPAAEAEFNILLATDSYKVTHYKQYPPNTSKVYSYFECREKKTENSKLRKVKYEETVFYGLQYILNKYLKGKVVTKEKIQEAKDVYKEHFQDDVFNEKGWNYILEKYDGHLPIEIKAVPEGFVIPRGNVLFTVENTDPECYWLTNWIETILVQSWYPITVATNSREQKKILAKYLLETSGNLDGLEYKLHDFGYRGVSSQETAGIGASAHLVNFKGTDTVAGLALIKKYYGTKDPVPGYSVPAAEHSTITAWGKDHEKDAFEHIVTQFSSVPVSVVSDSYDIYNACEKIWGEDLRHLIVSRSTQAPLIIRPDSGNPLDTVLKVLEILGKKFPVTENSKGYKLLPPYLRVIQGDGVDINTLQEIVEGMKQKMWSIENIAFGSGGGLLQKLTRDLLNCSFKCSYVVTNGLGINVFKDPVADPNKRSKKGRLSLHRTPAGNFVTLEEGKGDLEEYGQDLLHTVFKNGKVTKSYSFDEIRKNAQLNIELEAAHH

For CN(N=O)C(=O)N[C@H]1C(O)O[C@H](CO)[C@@H](O)[C@@H]1O (mixture of isomers) [Streptozotocin], the IC50 [1, 24] was 391 ± 152 µM, the IC50 ([1]; read-out: IC50 in DMS-114 cells (μM), DNA damaging chemotherapeutic agent + No Compound 1, agent alone, 3 days, relative to DMSO control) was 3960 ± 2270 µM and the IC50 [2, 25] was 360 ± 304 µM. For the same molecule, the IC50 ([2]; read-out: IC50 in Jurkat cells (μM), DNA damaging chemotherapeutic agent + No Compound 1, agent alone, 3 days, relative to DMSO control) was 1014 ± 10 µM.
In the case of Sc1ncnc2nc[nH]c12 [6-Mercaptopurine], the “Combination effect in the presence of Compound 1” value (shortened to “Combination effect”) [3] is reported as “less than additive effect”.
With O=NN(CCCl)C(=O)NCCCl [Carmustine] the IC50 [1, 26] was 33.3 ± 7.3 µM, the IC50 [1, 24] was 11.5 ± 3.6 µM and the “Fold change (IC50 in DMS-114 cells)” value [1] was 6.12 ± 7.5. The IC50 [2, 27] was 2.97 ± 1.1 µM, the IC50 [2, 25] was 3.13 ± 0.49 µM and the “Fold change (IC50 in Jurkat cells)” value [2] was 0.93 ± 0.21.
In the case of COCCOCCOCCOCCOC(=O)OC[n+]1ccc(NC(=NC#N)NCCCCCCOc2ccc(Cl)cc2)cc1.[Cl-] [Compound 2, 1-[2-(2-(2-(2-Methoxyethoxy)-ethoxy)-ethoxy)-ethoxy-carbonyloxymethyl]-4-[N′-cyano-N″-(6-(4-chlorophenoxy)-hexyl)-N-guanidino]-pyridinium chloride], the “Tumor growth compared to vehicle” value ([4]; Compound 2 150 mg/kg IV 24 hours infusion from day eight, observation 23 days) is reported as “statistically significant reduction in tumor growth”, the “Mortality by day 11” value ([5]; Compound 2 250 mg/kg intramuscular QD × 5, no nicotinic acid, 250 mg/kg) is reported as 3 of the 5 and 3/5 and the “Mortality by day 11” value ([5]; Compound 2 250 mg/kg intramuscular QD × 5, nicotinic acid pre-treatment 200 mg/kg IV QD × 5) is reported as 0/5. The “Mortality by day 11” value ([5]; Compound 2 250 mg/kg intramuscular QD × 5, nicotinic acid pre-treatment 200 mg/kg PO QD × 5) was 0/5, the “Mortality by day 11” value ([5]; Compound 2 250 mg/kg intramuscular QD × 5, nicotinic acid pre-treatment 200 mg/kg SC QD × 5) was 0/5 and the “Mortality by day 5” value ([6]; then nicotinic acid 90 mg/m^2/h for 4 h (Group 2)) was 0/4. For the same molecule, the “Mortality by day 5” value ([6]; then nicotinic acid 90 mg/m^2/h for 24 h (Group 3)) was 0/5, the “Mortality by day 5” value ([6]; then saline, no nicotinic acid (Group 1), 650 mg/kg) was 3 of the 5 and 3/5 and the “Tumor growth compared to vehicle” value ([7]; Compound 2 150 mg/kg IV 24 hours infusion from day fifteen, observation 22 days) was “statistically significant reduction in tumor growth”. The “Tumor growth compared to vehicle” value ([7]; Compound 2 650 mg/kg IV 24 hours infusion) was “significant reduction in tumor growth” and the “Mortality in treatment group” value ([7]; Compound 2 650 mg/kg IV 24 hours infusion, tumor-bearing mice) was “mortality of a mouse in this treatment group”.
For O=P1(N(CCCl)CCCl)NCCCO1 (stereo not shown) [Cyclophosphamide], the “Combination effect” value [3] was “less than additive effect”.
For O=C(/C=C/c1cccnc1)NCCCCC1CCN(C(=O)c2ccccc2)CC1 [FK866, (E)-N-[4-(1-benzoylpiperidin-4-yl)butyl]-3-(pyridin-3-yl)acrylamide], the “Inhibition of human NMPRT” value [8] is given as “potent”.
In the case of CC(=O)O[C@H]1C(=O)[C@@]2(C)[C@H]([C@H](OC(=O)c3ccccc3)[C@]3(O)C[C@H](OC(=O)[C@H](O)[C@@H](NC(=O)c4ccccc4)c4ccccc4)C(C)=C1C3(C)C)[C@]1(OC(C)=O)CO[C@@H]1C[C@@H]2O [Paclitaxel], the “Combination effect” value [3] is reported as “less than additive effect”.
For CNNCc1ccc(C(=O)NC(C)C)cc1 [Procarbazine], the “Combination effect” value [3] was “less than additive effect”.
With NC(=O)c1ncn([C@@H]2O[C@H](CO)[C@@H](O)[C@H]2O)n1 [Ribavirin] the IC50 [1, 26] was 172 µM, the IC50 [1, 24] was 173 µM and the “Fold change (IC50 in DMS-114 cells)” value [1] was 0.99. For the same molecule, the IC50 [2, 27] was 63.3 ± 10 µM, the IC50 [2, 25] was 15.5 ± 3.1 µM and the “Fold change (IC50 in Jurkat cells)” value [2] was 4.09 ± 0.16.
With Cn1nnc2c(C(N)=O)ncn2c1=O [Temozolomide] the IC50 [1, 26] was 339 ± 190 µM, the IC50 [1, 24] was 50.1 ± 7.83 µM and the “Fold change (IC50 in DMS-114 cells)” value [1] was 2.53 ± .11. The IC50 [2, 27] was 212 ± 135 µM, the IC50 [2, 25] was 158 ± 125 µM and the “Fold change (IC50 in Jurkat cells)” value [2] was 1.46 ± 0.26.
With NC(=O)c1cccnc1 [nicotinamide] the “Concentrations rescuing viability relative to those required for NA rescue” value [9] was 1,000 ×.
In the case of O=C(O)c1cccnc1 [nicotinic acid], the “Rescue from Compound 1 induced cytotoxicity by nicotinic acid” value [10] is reported as “not rescued”, the “Effect of nicotinic acid on the anti-tumor activity of Compound 2” value ([4]; nicotinic acid 120 mg/kg 4 hours infusion after Compound 2 150 mg/kg) is reported as “able to inhibit the anti-tumor activity of Compound 2” and the “Rescue from NF-κB inhibition” value [11] is reported as “can rescue”. The “Rescue from decline in NAD^+ levels” value [12] was “can rescue”, the “Rescue from Compound 1 induced cytotoxicity by nicotinic acid” value [13] was “not rescued” and the “Rescue from Compound 1 induced cytotoxicity by nicotinic acid” value [14] was “rescue”. The “Rescue from Compound 1 induced cytotoxicity by nicotinic acid” value [15] was “not rescued”, the “Rescue from Compound 1 induced cytotoxicity by nicotinic acid” value [16] was “not rescued” and the “Rescue from Compound 1 induced cytotoxicity by nicotinic acid” value [17] was “not rescued”. For the same molecule, the “Rescue from Compound 1 induced cytotoxicity by nicotinic acid” value [18] was “not rescued”, the “Rescue from Compound 1 induced cytotoxicity by nicotinic acid” value [19] was “not rescued” and the “Rescue from Compound 1 induced cytotoxicity by nicotinic acid” value [20] was “not rescued”. For the same molecule, the “Effect of niacin on the anti-tumor activity of Compound 2” value ([7]; niacin 120 mg/kg 4 hours after Compound 2 150 mg/kg) was “unable to inhibit the anti-tumor activity of Compound 2”, the “Effect of niacin on the anti-tumor activity of Compound 2” value ([7]; niacin 120 mg/kg 4 hours after Compound 2 650 mg/kg) was “did not inhibit the anti-tumor activity of Compound 2” and the “Percentage of sarcomas not being rescued” value ([21]; 13 sarcoma cell lines, Compound 1 with nicotinic acid) was 60%. The “Neuroblastoma and glioblastoma cell lines not rescued by nicotinic acid” value ([21]; Compound 1 induced cytotoxicity) was “Two out of three”, the “Number of sarcoma cell lines not rescued by nicotinic acid” value ([21]; out of 13 sarcoma cell lines tested, Compound 1 with 0.01, 0.1 and 1 mM nicotinic acid) was 8 and the “Rescue from Compound 1 induced cytotoxicity by nicotinic acid” value [22] was “not rescued”. For the same molecule, the “Rescue from Compound 1 induced cytotoxicity by nicotinic acid” value [23] was “not rescued”.
